Measurements from patent US20260265238A1, “COMPOUNDS AND PHARMACEUTICAL COMPOSITIONS THAT DEGRADE SWI/SNF-RELATED MATRIX-ASSOCIATED ACTIN-DEPENDENT REGULATOR OF CHROMATIN SUBFAMILY A” (Plexium, Inc., priority 2023, published 2026).

Tests used:
[1] = molecular target: T1, SMARCA2-HiBiT HeLa cells (protein which is expressed from the SMARCA2 gene) (Homo sapiens, UniProt P51531); assay: SMARCA2 degradation assay (HiBiT-fusion HeLa cell line, 24 h, luminescence); format: cell-based
T1 construct: protein which is expressed from the SMARCA2 and SMARCA4 genes; host or cells: HeLa (SMARCA2-HiBiT engineered line)
Summary of the method: (§1)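 In this 24-hour cellular degradation readout, HiBiT-tagged HeLa lines received compound at up to typically 10 μM down to 300 pM in 10 points. After lysis with LgBiT and substrate, luminescence signals were used to build dose-response curves for DC50.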

[2] = molecular target: T2, SMARCA4-HiBiT HeLa cells (protein which is expressed from the SMARCA4 gene) (Homo sapiens, UniProt P51532); assay: SMARCA4 degradation assay (HiBiT-fusion HeLa cell line, 24 h, luminescence); format: cell-based
T2 construct: protein which is expressed from the SMARCA2 and SMARCA4 genes; host or cells: HeLa (SMARCA4-HiBiT engineered line)
Summary of the method: as §1

T2 sequence (P51532 whole entry, the tested form may be a part): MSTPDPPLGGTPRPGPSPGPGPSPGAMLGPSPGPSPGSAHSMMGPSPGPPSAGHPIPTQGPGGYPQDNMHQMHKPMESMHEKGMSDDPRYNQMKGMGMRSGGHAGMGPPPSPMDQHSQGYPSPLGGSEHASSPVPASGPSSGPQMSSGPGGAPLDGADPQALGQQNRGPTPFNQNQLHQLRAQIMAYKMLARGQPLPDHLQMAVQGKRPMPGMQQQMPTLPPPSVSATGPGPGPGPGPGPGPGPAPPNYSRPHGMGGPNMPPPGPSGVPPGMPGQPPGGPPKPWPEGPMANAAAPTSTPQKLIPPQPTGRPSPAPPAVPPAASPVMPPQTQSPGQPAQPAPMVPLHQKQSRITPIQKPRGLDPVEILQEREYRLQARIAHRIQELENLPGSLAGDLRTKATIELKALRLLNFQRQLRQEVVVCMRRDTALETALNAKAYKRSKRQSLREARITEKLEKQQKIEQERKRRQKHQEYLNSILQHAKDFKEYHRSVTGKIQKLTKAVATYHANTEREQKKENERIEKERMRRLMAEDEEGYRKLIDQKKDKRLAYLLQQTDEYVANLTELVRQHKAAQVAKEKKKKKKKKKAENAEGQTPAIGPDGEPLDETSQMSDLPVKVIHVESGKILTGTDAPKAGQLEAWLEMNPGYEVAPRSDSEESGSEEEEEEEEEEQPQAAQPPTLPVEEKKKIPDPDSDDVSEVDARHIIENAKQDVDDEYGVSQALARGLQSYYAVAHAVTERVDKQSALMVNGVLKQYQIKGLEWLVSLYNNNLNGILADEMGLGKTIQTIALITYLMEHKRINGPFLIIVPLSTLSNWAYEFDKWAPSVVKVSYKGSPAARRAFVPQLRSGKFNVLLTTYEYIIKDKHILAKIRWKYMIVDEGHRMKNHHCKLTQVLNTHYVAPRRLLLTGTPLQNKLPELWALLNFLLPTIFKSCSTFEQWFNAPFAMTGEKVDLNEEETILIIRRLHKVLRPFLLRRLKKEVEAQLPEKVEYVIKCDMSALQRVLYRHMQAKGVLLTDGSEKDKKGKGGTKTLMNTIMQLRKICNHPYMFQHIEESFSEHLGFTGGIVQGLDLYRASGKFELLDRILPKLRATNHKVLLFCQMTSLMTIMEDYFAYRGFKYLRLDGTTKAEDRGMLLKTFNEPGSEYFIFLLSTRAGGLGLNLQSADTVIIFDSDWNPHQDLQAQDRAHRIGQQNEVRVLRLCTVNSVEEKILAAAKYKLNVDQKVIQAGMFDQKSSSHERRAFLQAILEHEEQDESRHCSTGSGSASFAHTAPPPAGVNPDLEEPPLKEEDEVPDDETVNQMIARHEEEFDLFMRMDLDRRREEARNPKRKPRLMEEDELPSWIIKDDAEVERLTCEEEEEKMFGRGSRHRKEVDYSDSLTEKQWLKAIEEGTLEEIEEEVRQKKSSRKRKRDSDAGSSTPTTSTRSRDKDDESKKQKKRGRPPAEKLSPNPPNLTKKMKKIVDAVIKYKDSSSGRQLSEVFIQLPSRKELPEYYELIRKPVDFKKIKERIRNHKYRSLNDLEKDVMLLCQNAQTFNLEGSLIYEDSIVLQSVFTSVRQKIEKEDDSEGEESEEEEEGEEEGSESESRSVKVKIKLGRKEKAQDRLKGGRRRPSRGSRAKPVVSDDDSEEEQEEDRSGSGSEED
T1 sequence (P51531 whole entry, the tested form may be a part): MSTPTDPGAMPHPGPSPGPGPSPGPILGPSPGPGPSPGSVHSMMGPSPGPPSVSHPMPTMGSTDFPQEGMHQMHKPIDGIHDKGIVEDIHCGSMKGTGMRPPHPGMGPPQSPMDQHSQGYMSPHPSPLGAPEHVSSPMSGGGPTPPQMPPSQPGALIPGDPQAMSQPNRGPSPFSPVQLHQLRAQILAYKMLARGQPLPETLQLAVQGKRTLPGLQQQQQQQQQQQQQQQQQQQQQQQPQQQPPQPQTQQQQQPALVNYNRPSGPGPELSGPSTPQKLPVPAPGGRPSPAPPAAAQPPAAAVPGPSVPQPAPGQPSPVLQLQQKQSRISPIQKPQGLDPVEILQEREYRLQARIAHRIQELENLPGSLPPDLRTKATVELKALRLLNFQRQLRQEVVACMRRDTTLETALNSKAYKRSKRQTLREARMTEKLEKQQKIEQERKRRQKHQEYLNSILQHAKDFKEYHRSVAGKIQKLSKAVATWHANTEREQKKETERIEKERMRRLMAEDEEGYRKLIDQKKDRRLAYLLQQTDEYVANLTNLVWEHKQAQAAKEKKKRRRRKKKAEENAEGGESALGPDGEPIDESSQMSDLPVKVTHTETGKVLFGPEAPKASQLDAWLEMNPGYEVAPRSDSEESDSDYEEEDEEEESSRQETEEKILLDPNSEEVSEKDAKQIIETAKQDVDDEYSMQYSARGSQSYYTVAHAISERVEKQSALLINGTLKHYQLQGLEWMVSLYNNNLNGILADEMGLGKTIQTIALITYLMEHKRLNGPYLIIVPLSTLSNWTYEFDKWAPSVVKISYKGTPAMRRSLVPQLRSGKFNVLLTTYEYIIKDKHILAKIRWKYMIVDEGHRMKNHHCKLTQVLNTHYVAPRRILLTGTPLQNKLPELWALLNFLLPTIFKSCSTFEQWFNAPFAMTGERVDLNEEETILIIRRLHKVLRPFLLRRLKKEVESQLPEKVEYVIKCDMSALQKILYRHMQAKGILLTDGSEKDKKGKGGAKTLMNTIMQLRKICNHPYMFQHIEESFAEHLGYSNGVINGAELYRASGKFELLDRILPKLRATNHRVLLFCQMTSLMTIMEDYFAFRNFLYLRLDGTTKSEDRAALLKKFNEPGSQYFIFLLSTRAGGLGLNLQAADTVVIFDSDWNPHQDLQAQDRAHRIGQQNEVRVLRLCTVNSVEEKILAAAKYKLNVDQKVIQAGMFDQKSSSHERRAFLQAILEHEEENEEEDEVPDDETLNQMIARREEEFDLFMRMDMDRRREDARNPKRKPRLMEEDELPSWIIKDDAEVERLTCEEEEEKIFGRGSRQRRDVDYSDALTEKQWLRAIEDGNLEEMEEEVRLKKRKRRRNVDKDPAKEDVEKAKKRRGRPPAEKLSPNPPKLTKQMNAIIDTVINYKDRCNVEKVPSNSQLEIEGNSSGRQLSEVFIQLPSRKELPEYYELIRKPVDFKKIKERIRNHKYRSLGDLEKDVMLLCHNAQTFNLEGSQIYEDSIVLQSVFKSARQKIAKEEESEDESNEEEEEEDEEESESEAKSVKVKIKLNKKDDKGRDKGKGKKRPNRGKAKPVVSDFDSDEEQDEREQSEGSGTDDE

| Structure (SMILES) | DC50 [1] | SMARCA2 % Degradation @ 1 μM ([1]; @ 1 μM) | DC50 [2] | inhibition at 1 µM ([2]; @ 1 μM) | SMARCA2 % Degradation @ 1 μM ([1]; 1 μM) | inhibition at 1 µM ([2]; 1 μM) |
| --- | --- | --- | --- | --- | --- | --- |
| C[C@@H]1CCN(c2cc(-c3ccccc3O)nnc2N)CCN1c1ccnc(C#CCn2cccn2)n1 [Compound P-332, 0-{5-[(R)-5-methyl-4-{2-[3-(1-pyrazolyl)-1-propynyl]-4-pyrimidinyl}-1,4-diazepan-1-y1]-6-amino-3-pyridazinyl}phenol] | < 0.05 µM | ++ (++=30-70%) | 0.05 to 0.5 µM | < 30% | – | – |
| COCC1COCCN1CC#Cc1nccc(N2CCN(c3cc(-c4ccccc4O)nnc3N)CC[C@H]2C)n1 (stereo partly drawn) [Compound P-162, o-{5-[(R)-4-(2-{3-[3-(mcthoxymcthyl)-4-morpholinyl]-1-propynyl}-4-pyrimidinyl)-5-methyl-1,4-diazepan-1-yl]-6-amino-3-pyridazinyl}phenol] | 0.05 to 0.5 µM | ++ (++=30-70%) | 0.05 to 0.5 µM | 30 to 70% | – | – |
| CN(C)CC#Cc1nccc(N2C3CCC2CN(c2cc(-c4ccccc4O)nnc2N)CC3)n1 (stereo not shown) [Compound P-157, o-[6-amino-5-(9-{2-[3-(dimethylamino)-1-propynyl]-4-pyrimidinyl}-3,9-diazabicyclo[4.2.1]non-3-yl)-3-pyridazinyl]phenol] | < 0.05 µM | ++ (++=30-70%) | 0.05 to 0.5 µM | 30 to 70% | – | – |
| Nc1nnc(-c2ccccc2O)cc1N1CCCN(c2ccnc(C#CCN3CCCC(O)C3)n2)CC1 (stereo not shown) [Compound P-361, 1-[3-(4-{4-[3-amino-6-(o-hydroxyphenyl)-4-pyridazinyl]-1,4-diazepan-1-yl}-2-pyrimidinyl)-2-propynyl]-3-piperidinol] | 0.5 to 5 µM | ++ (++=30-70%) | 0.5 to 5 µM | < 30% | – | – |
| CC(C)(C)OC(=O)N1CCC[C@H]1C#Cc1nccc(N2CCCN(c3cc(-c4ccccc4O)nnc3N)CC2)n1 [Compound P-314, tert-butyl (S)-2-[2-(4-{4-[3-amino-6-(o-hydroxyphenyl)-4-pyridazinyl]-1,4-diazepan-1-yl}-2-pyrimidinyl)ethynyl]-1-pyrrolidinecarboxylate] | 0.05 to 0.5 µM | – | 0.05 to 0.5 µM | 30 to 70% | – | – |
| Nc1nnc(-c2ccccc2O)cc1N1CCCN(c2ccnc(C#CC3CCOC3)n2)CC1 (stereo not shown) [Compound P-340, 0-[6-amino-5-(4-{2-[2-(tetrahydro-3-furyl)ethynyl]-4-pyrimidinyl}-1,4-diazepan-1-yl)-3-pyridazinyl]phenol] | 0.05 to 0.5 µM | ++ (++=30-70%) | 0.05 to 0.5 µM | 30 to 70% | – | – |
| C[C@@H]1CCN(c2cc(-c3ccccc3O)nnc2N)CCN1c1cc(C#CCN(C)C)ncc1F [Compound P-419, 0-{5-[(R)-4-{2-[3-(dimethylamino)-1-propynyl]-5-fluoro-4-pyridy1}-5-methyl-1,4-diazepan-1-yl]-6-amino-3-pyridazinyl}phenol] | 0.05 to 0.5 µM | – | 0.05 to 0.5 µM | – | + (+=<30%) | < 30% |
| Nc1nnc(-c2ccccc2O)cc1N1CCCN(c2ccnc(C#CCN3CC(=O)NC(=O)C3)n2)CC1 [Compound P-364, 4-[3-(4-{4-[3-amino-6-(o-hydroxyphenyl)-4-pyridazinyl]-1,4-diazepan-1-yl}-2-pyrimidinyl)-2-propynyl]-2,6-piperazinedione] | 0.5 to 5 µM | ++ (++=30-70%) | 0.5 to 5 µM | < 30% | – | – |
| Nc1nnc(-c2ccccc2O)cc1N1CCC2C1CCN2c1ccnc(C#CCNC(=O)c2cc3ncccn3n2)n1 (stereo not shown) [Compound P-77, N-(3-(4-(4-(3-amino-6-(2-hydroxyphenyl)pyridazin-4-yl)hexahydropyrrolo[3,2-b]pyrrol-1(2H)-yl)pyrimidin-2-yl)prop-2-yn-1-yl)pyrazolo[1,5-a]pyrimidine-2-carboxamide] | 0.5 to 5 µM | + (+=<30%) | 0.05 to 0.5 µM | 30 to 70% | – | – |
| Nc1nnc(-c2ccccc2O)cc1N1CC2CC(C1)N2c1ccnc(C#CCn2cncn2)n1 [Compound P-205, o-[6-amino-5-(6-{2-[3-(1H-1,2,4-triazol-1-yl)-1-propynyl]-4-pyrimidinyl}-3,6-diazabicyclo[3.1.1]hept-3-yl)-3-pyridazinyl]phenol] | > 5 µM | – | 0.5 to 5 µM | 30 to 70% | – | – |
| Nc1nnc(-c2ccccc2O)cc1N1CCN(c2ccnc(C#CCNC(=O)c3cc4n(n3)CCCC4)n2)CC1 [Compound P-69, N-(3-(4-(4-(3-amino-6-(2-hydroxyphenyl)pyridazin-4-yl)piperazin-1-yl)pyrimidin-2-yl)prop-2-yn-1-yl)-4,5,6,7-tetrahydropyrazolo[1,5-a]pyridine-2-carboxamide] | 0.05 to 0.5 µM | ++ (++=30-70%) | < 0.05 µM | 30 to 70% | – | – |
| C[C@@H]1CCN(c2cc(-c3ccccc3O)nnc2N)CCN1c1ccnc(C#CCN(C)C)c1C#N [Compound P-406, 4-{(R)-4-[3-amino-6-(0-hydroxyphenyl)-4-pyridazinyl]-7-methyl-1,4-diazepan-1-yl}-2-[3-(dimethylamino)-1-propynyl]nicotinonitrile] | 0.5 to 5 µM | – | 0.5 to 5 µM | – | ++ (++=30-70%) | 30 to 70% |
| Cc1cnc(C#CCN(C)C)nc1N1CCN(c2cc(-c3ccccc3O)nnc2N)CC[C@H]1C [Compound P-229, o-{5-[(R)-4-{2-[3-(dimethylamino)-1-propynyl]-5-methyl-4-pyrimidinyl}-5-methyl-1,4-diazepan-1-yl]-6-amino-3-pyridaziny1}phenol] | < 0.05 µM | +++ (+++=>70%) | 0.05 to 0.5 µM | 30 to 70% | – | – |
| Nc1nnc(-c2ccccc2O)cc1N1CCN(c2ccnc(C#CCNC(=O)c3nc4ccccc4s3)n2)CC1 [Compound P-118, N-(3-(4-(4-(3-amino-6-(2-hydroxyphenyl)pyridazin-4-yl)piperazin-1-yl)pyrimidin-2-yl)prop-2-yn-1-yl)benzo[d]thiazole-2-carboxamide] | 0.05 to 0.5 µM | ++ (++=30-70%) | 0.05 to 0.5 µM | 30 to 70% | – | – |
| Nc1nnc(-c2ccccc2O)cc1N1CCN(c2ccnc(C#CCNC(=O)c3cc4n(n3)CCC4)n2)CC1 [Compound P-59, N-(3-(4-(4-(3-amino-6-(2-hydroxyphenyl)pyridazin-4-yl)piperazin-1-yl)pyrimidin-2-yl)prop-2-yn-1-yl)-5,6-dihydro-4H-pyrrolo[1,2-b]pyrazole-2-carboxamide] | 0.05 to 0.5 µM | ++ (++=30-70%) | > 5 µM | – | – | – |
| C[C@@H]1CCN(c2cc(-c3ccccc3O)nnc2N)CCN1c1ccnc(C#CCN2CC3CC2C3)c1 [Compound P-392, 0-{5-[(R)-4-(2-{3-(2-azabicyclo[2.1.1]hex-2-yl)-1-propynyl}-4-pyridyl)-5-methyl-1,4-diazepan-1-yl]-6-amino-3-pyridazinyl}phenol] | 0.05 to 0.5 µM | – | 0.05 to 0.5 µM | – | +++ (+++=>70%) | > 70% |
| Cc1nn2ccn(CC#Cc3nccc(N4CCN(c5cc(-c6ccccc6O)nnc5N)CC[C@H]4C)n3)c(=O)c2c1C [Compound P-336, 5-[3-(4-{ (R)-4-[3-amino-6-(o-hydroxyphenyl)-4-pyridazinyl]-7-methyl-1,4-diazepan-1-yl}-2-pyrimidinyl)-2-propynyl]-2,3-dimethyl-1,5,7a-triaza-4(5H)-indenone] | 0.05 to 0.5 µM | ++ (++=30-70%) | 0.05 to 0.5 µM | < 30% | – | – |
| Nc1nnc(-c2ccccc2O)cc1N1C2CCC1CN(c1ccnc(C#CCn3cncn3)n1)C2 [Compound P-283, 0-[6-amino-5-(3-{2-[3-(1H-1,2,4-triazol-1-yl)-1-propynyl]-4-pyrimidinyl}-3,8-diazabicyclo[3.2.1]oct-8-yl)-3-pyridazinyl]phenol] | 0.05 to 0.5 µM | ++ (++=30-70%) | 0.05 to 0.5 µM | < 30% | – | – |
| CC(C)(C)OC(=O)NC/C=C/c1nccc(N2CCCN(c3cc(-c4ccccc4O)nnc3N)CC2)n1 [Compound P-114, tert-butyl (E)-(3-(4-(4-(3-amino-6-(2-hydroxyphenyl)pyridazin-4-yl)-1,4-diazepan-1-yl)pyrimidin-2-yl)allyl)carbamate] | 0.05 to 0.5 µM | +++ (+++=>70%) | 0.05 to 0.5 µM | 30 to 70% | – | – |
| Nc1nnc(-c2ccccc2O)cc1N1CC2CCC(C1)N2c1ccnc(C#CCn2cccn2)n1 [Compound P-133, 2-(5-(8-(2-(3-(1H-pyrazol-1-yl)prop-1-yn-1-yl)pyrimidin-4-yl)-3,8-diazabicyclo[3.2.1]octan-3-yl)-6-aminopyridazin-3-yl)phenol] | 0.05 to 0.5 µM | ++ (++=30-70%) | 0.05 to 0.5 µM | 30 to 70% | – | – |
| CNCC#Cc1nccc(N2C[C@H]3C[C@@H]2CN3c2cc(-c3ccccc3O)nnc2N)n1 [Compound P-295, 0-{5-[(1R,4R)-5-{2-[3-(methylamino)-1-propynyl]-4-pyrimidinyl}-2,5-diazabicyclo[2.2.1]hept-2-y1]-6-amino-3-pyridazinyl} phenol] | 0.05 to 0.5 µM | ++ (++=30-70%) | 0.05 to 0.5 µM | < 30% | – | – |
| COCC1CN(CC#Cc2nccc(N3CCN(c4cc(-c5ccccc5O)nnc4N)CC[C@H]3C)n2)CCO1 (stereo partly drawn) [Compound P-161, o-{5-[(R)-4-(2-{3-[2-(methoxymethyl)-4-morpholinyl]-1-propynyl}-4-pyrimidinyl)-5-methyl-1,4-diazepan-1-yl]-6-amino-3-pyridazinyl}phenol] | 0.05 to 0.5 µM | ++ (++=30-70%) | 0.05 to 0.5 µM | 30 to 70% | – | – |
